Data published in US11925632B2, “Isoquinoline derivatives for use in treating GLUT1 deficiency syndrome” (GLIAPHARM SA, priority 2019, dated 2024).
pEC50, pIC50: −log10 of the molar value.

What was measured:
Format in all cases: cell-based
[1] = tested on: primary astrocytes; experiment: MTT mitochondrial activity assay; details: Mus musculus, Astrocyte, 24 h treatment
Procedure: (§1) Primary cultures of cerebrocortical astrocytes were obtained from 1 to 2-day-old OF1 mouse pups (Charles River). Briefly, cortices were isolated and minced in small pieces under a dissecting microscope. The cells were incubated for 30 min at 37° C. in a solution containing 20 U/ml papain, 1 mM L-cysteine and 10 kU/ml DNase I. After dissociation, papain activity was stopped by the addition of fetal calf serum (FCS). Single-cell suspension was then obtained by mechanical dissociation, which consisted in cells trituration in a DMEM D7777 medium supplemented with 44 mm NaHCO3, 10 ml/L antibiotic/antimycotic solution and 10% FCS. The cells were seeded at an average density of ˜10′000 cells/cm^2 on poly-D-lysine coated 96- or 12-well culture plates, depending on their use, and grown in DMEM D7777 medium supplemented with 44 mm NaHCO3, 10 ml/L antibiotic/antimycotic solution and 10% FCS at 37° C. in a humidified atmosphere containing 5% CO2/95% air. Culture medium was renewed twice a week. Cells were stimulated and harvested between DIV14 and DIV17, when confluence and cell growth were optimal.
To monitor mitochondrial activity in astrocytes, which is linked to the metabolic process of glycolysis and production of lactate, astrocytes in 96-well plates were stimulated for 24 h (37° C. 5% CO2/95% air) with the compounds of the invention ranging from 0.2 to 200 μM.
After stimulation, 5 mg/ml thiazol blue tetrazolium bromide (MTT) in D5030 medium complemented with 5 mM D-glucose and 44 mM sodium bicarbonate (pH 7.2) was added to each well, and cells were incubated for 4 h at 37° C. (5% CO2). The medium was then removed and the amount of reduced MTT, i.e. formazan, solubilized in DMSO (50 μl/well) was determined using a spectrophotometer (absorbance of 570 nm).
The mitochondrial activity in primary astrocytes treated with Compounds (1) to (4) at concentrations ranging from 1 nM to 200 μM. After 24 h, mitochondrial activity was monitored in MTT colorimetric assay as described above (FIG. 3).

[2] = tested on: astrocytes; experiment: Extracellular medium acidification (SNARF5) assay in astrocytes; details: Mus musculus, Astrocyte, 1.5 h; astrocytes in vitro, 90 min stimulation, 10 nM to 30 μM
Procedure: Secretion of lactate was measured indirectly through the acidification of extracellular medium using extracellular pH sensor SNARE-5F-(AND-6)-CAR (SNARF5) as described below.
Secretion of lactate was measured indirectly through the acidification of extracellular medium using extracellular pH sensor […] (SNARF5). After washing cells twice with stimulation medium (DMEM (D5030, Sigma), 1 mM […], and 5 mM Glucose, pH 7.4) at 37° C., cells were stimulated with compounds at a final concentration ranging from 10 nM to 30 μM in 50 μl per well of stimulation medium supplemented with 10 μM of SNARF5 (Life Technologies Corporation). Each compound was tested in two different plates for duplicates. After 90 min stimulation, fluorescence was read at exc. (excitation) 480 nm/emm. (emission) 580 nm and at exc 480 nm/emm. 630 nm. The ratio of fluorescence between 630 nm and 580 emission values, which is proportional to extracellular pH, was calculated. In each plate, 8 wells were used for negative controls (DMSO 0.1%) and 8 wells were used for positive controls (CCCP 2 μM in DMSO).
Table 3 below lists compounds that are active on the extracellular medium acidification (SNARF5) assay in astrocytes in vitro, which indicates their ability to produce lactate. ‘+’ indicates activity of compounds with EC50>5 μM; ‘++’ indicates activity of compounds with EC50<5 μM.
as §1

[3] = tested on: primary mouse astrocytes; experiment: Extracellular lactate quantification (lactate release from primary astrocytes); details: Astrocyte, 1.5 h; for pEC50: primary mouse astrocytes, 90 min stimulation, read-out: EC50 of astrocyte-mediated lactate secretion; for Emax: Mus musculus, positive control CCCP 2 μM, 90 min, read-out: Maximal effect on lactate secretion compared to the effect of the positive control (100%)
Procedure: as §1
Secretion of L-lactate was measured in the extracellular medium of 96-well plated astrocytes after 90 min stimulation (at 37° C., in 5% CO2/95% air conditions) with Vehicle (DMSO), the compounds of the invention (100 nM to 100 μM) or positive control. […] Stimulation medium was composed of D5030 medium complemented with 5 mM D-glucose and 44 mM sodium bicarbonate, pH 7.2. To quantify lactate concentrations in the extracellular medium, 200 μl of a 0.2M Glycine-semicarbazide buffer (pH 10) containing 3 mM NAD and 14 U/ml LDH was added to each well of a 96-well plate containing 30 μl aliquots of extracellular medium. Samples were incubated at 37° C. for 1 h. Fluorescence intensity (340 nm excitation/450 nm emission), which represents the amount of NADH produced, was measured, and lactate concentration values were determined relative to a standard curve of L-lactate concentrations.
The release of lactate from primary mouse astrocytes treated with compound (1) at 10 μM was quantified by (FIG. 1). Accumulation of lactate in the extracellular medium was measured over a period of 1.5 h. […] Maximal effects of the compounds were 38.6% (1), 38% (2), 31% (4) and 76% (3) when compared to the effect of the positive control (100%) for compounds (1) to (4), respectively.

Q: With `COc1cc2ccnc(Nc3ccc(C(F)(F)F)cc3)c2cc1OC` [Example 2, 6,7-dimethoxy-N-(4-(trifluoromethyl)phenyl)isoquinolin-1-amine] as the compound, how does the pIC50 [1] read?
A: 4.37

Q: What about the pEC50 [2] of the same compound?
A: < 5.30

Q: And the pEC50 [3]?
A: 5.00

Q: And the Emax [3]?
A: 38%

Q: How did the pIC50 [1] turn out when `FC(F)(F)Oc1ccc(Nc2nccc3ccccc23)cc1` [Example 3, N-(4-(trifluoromethoxy)phenyl)isoquinolin-1-amine] was run?
A: 4.58

Q: What about the pEC50 [2] of the same compound?
A: < 5.30

Q: And the pEC50 [3]?
A: 4.96

Q: What about the Emax [3] of the same compound?
A: 76%

Q: How did the pIC50 [1] turn out when `COc1cc2ccnc(Cc3ccc(OC(F)(F)F)cc3)c2cc1OC` [Example 4, 6,7-dimethoxy-1-(4-(trifluoromethoxy)benzyl)isoquinoline] was run?
A: 5.26

Q: What about the pEC50 [2] of the same compound?
A: < 5.30

Q: And the pEC50 [3]?
A: 4.98

Q: And the Emax [3]?
A: 31%

Q: With `COc1ccc(Nc2nccc3cc(OC)c(OC)cc23)cc1OC` [Example 5, N-(3,4-dimethoxyphenyl)-6,7-dimethoxyisoquinolin-1-amine] as the compound, how does the pEC50 [2] read?
A: < 5.30

Q: How did the pEC50 [2] turn out when `COc1cc2ccnc(Nc3ccc(C)cc3)c2cc1OC` [Example 6, 6,7-dimethoxy-N-(p-tolyl)isoquinolin-1-amine] was run?
A: < 5.30

Q: With `COc1ccc(Nc2nccc3cc(OC)c(OC)cc23)cc1` [Example 7, 6,7-dimethoxy-N-(4-methoxyphenyl)isoquinolin-1-amine] as the compound, how does the pEC50 [2] read?
A: < 5.30

Q: With `COCCOc1ccc(Nc2nccc3cc(OC)c(OC)cc23)cc1` [Example 8, 6,7-dimethoxy-N-(4-(2-methoxyethoxy)phenyl)isoquinolin-1-amine] as the compound, how does the pEC50 [2] read?
A: < 5.30

Q: With `COCc1ccc(Nc2nccc3cc(OC)c(OC)cc23)cc1` [Example 9, 6,7-dimethoxy-N-(4-(methoxymethyl)phenyl)isoquinolin-1-amine] as the compound, how does the pEC50 [2] read?
A: < 5.30

Q: With `COc1cc2ccnc(Nc3ccc(OC(F)(F)F)cc3F)c2cc1OC` [Example 10, N-(2-fluoro-4-(trifluoromethoxy)phenyl)-6,7-dimethoxyisoquinolin-1-amine] as the compound, how does the pEC50 [2] read?
A: < 5.30

Q: `COc1cc2ccnc(Nc3cccc(OC(F)(F)F)c3)c2cc1OC` [Example 11, 6,7-dimethoxy-N-(3-(trifluoromethoxy)phenyl)isoquinolin-1-amine] was tested. Which pEC50 [2] did it give?
A: > 5.30

Q: With `COc1ccc2c(Nc3ccc(OC(F)(F)F)cc3)nccc2c1` [Example 12, 6-methoxy-N-(4-(trifluoromethoxy)phenyl)isoquinolin-1-amine] as the compound, how does the pEC50 [2] read?
A: < 5.30

Q: How did the pEC50 [2] turn out when `FC(F)(F)Oc1ccc(Nc2nccc3cc(Cl)ccc23)cc1` [Example 13, 6-chloro-N-(4-(trifluoromethoxy)phenyl)isoquinolin-1-amine] was run?
A: < 5.30

Q: How did the pEC50 [2] turn out when `COc1cc2ccnc(Nc3ccc(OC(F)(F)F)c(F)c3)c2cc1OC` [Example 14, N-(3-fluoro-4-(trifluoromethoxy)phenyl)-6,7-dimethoxyisoquinolin-1-amine] was run?
A: < 5.30

Q: How did the pEC50 [2] turn out when `COc1cc2ccnc(Nc3cccc(N(C)C)c3)c2cc1OC` [Example 15, N^1-(6,7-dimethoxyisoquinolin-1-yl)-N^3,N^3-dimethylbenzene-1,3-diamine] was run?
A: < 5.30

Q: How did the pEC50 [2] turn out when `COc1cc2ccnc(Nc3cccc(OC(F)F)c3)c2cc1OC` [Example 16, N-(3-(difluoromethoxy)phenyl)-6,7-dimethoxyisoquinolin-1-amine] was run?
A: > 5.30

Q: With `COc1cc2ccnc(Nc3ccc(C#N)cc3C(F)(F)F)c2cc1OC` [Example 17, 4-((6,7-dimethoxyisoquinolin-1-yl)amino)-3-(trifluoromethyl)benzo-nitrite] as the compound, how does the pEC50 [2] read?
A: < 5.30

Q: With `COc1cc2ccnc(Nc3ccc(SC)cc3)c2cc1OC` [Example 18, 6,7-dimethoxy-N-(4-(methylthio)phenyl)isoquinolin-1-amine] as the compound, how does the pEC50 [2] read?
A: < 5.30

Q: `COc1cc2ccnc(Nc3ccc(OC(F)(F)F)c(Cl)c3)c2cc1OC` [Example 19, N-(3-chloro-4-(trifluoromethoxy)phenyl)-6,7-dimethoxyisoquinolin-1-amine] was tested. Which pEC50 [2] did it give?
A: > 5.30

Q: How did the pEC50 [2] turn out when `COCCc1ccc(Nc2nccc3cc(OC)c(OC)cc23)cc1` [Example 20, 6,7-dimethoxy-N-(4-(2-methoxyethyl)phenyl)isoquinolin-1-amine] was run?
A: > 5.30

Q: With `COc1ccc2c(Nc3ccc(OC(F)(F)F)cc3)nccc2c1C` [Example 21, 6-methoxy-5-methyl-N-(4-(trifluoromethoxy)phenyl)isoquinolin-1-amine] as the compound, how does the pEC50 [2] read?
A: > 5.30

Q: With `COc1ccc2c(Nc3ccc(OC(F)(F)F)cc3)ncc(C)c2c1` [Example 24, 6-methoxy-4-methyl-N-(4-(trifluoromethoxy)phenyl)isoquinolin-1-amine] as the compound, how does the pEC50 [2] read?
A: < 5.30

Q: How did the pEC50 [2] turn out when `COc1ccc2c(Nc3ccc(OC(F)(F)F)cc3)ncc(Br)c2c1` [Example 25, 4-bromo-6-methoxy-N-(4-(trifluoromethoxy)phenyl)isoquinolin-1-amine] was run?
A: < 5.30

Q: `CN(C)c1ccc2c(Nc3ccc(OC(F)(F)F)cc3)nccc2c1` [Example 27, N^6,N^6-dimethyl-N^1-(4-(trifluoromethoxy)phenyl)isoquinoline-1,6-diamine] was tested. Which pEC50 [2] did it give?
A: > 5.30

Q: `COC(=O)c1ccc2c(Nc3ccc(OC(F)(F)F)cc3)nccc2c1` [Example 29, methyl 1-((4-(trifluoromethoxy)phenyl)amino)isoquinoline-6-carboxylate] was tested. Which pEC50 [2] did it give?
A: > 5.30

Q: With `CCc1ccc2c(Nc3ccc(OC(F)(F)F)cc3)nccc2c1` [Example 30, 6-ethyl-N-(4-(trifluoromethoxy)phenyl)isoquinolin-1-amine] as the compound, how does the pEC50 [2] read?
A: > 5.30
